Test results from US4110328A, “Bis-carbamylguanidinoazaalkane antimicrobial compounds” (Cooper Laboratories, Inc., priority 1976, dated 1978).
Values after ≈ are worked out from the molar mass of the structure shown. “Also recorded” adds a separate entry of the source. Counter-ions that a name gives are not always drawn.

Tests used:
S. aureus = test: Serial dilution MIC test, S. aureus; type: cell-based; settings: Staphylococcus aureus, read-out: MINIMUM […]. S. aureus; trypticase soy broth, 37° C, 36 hours; read-out: MINIMUM INHIBITORY CONCN. S. aureus
Procedure: (§1) A quantitative serial dilution test may also be performed by the following procedure.
(§2) A 20 mg/ml solution of the compound to be tested is prepared in a standard brain-heart infusion broth medium which has been diluted with water to one-half standard strength.
(§3) Serial dilutions are prepared by adding 1 ml of the solution to a test tube containing 9 ml of medium. Five milliliters of the resulting solution are then added to another test tube containing 5 ml of the medium. The resulting solution is then again diluted by the same procedure. Ordinarily one tenfold dilution and four twofold dilutions are made. The procedure can be continued if more dilute solutions are required. Each of the series of tubes containing solutions of the compounds to be assayed is inoculated with two drops of a heavy culture of the chosen microorganisms in the brain-heart infusion broth. The tubes are incubated at 37° C for 36 hours and the most dilute solution showing no microbial growth is noted. The concentration of this solution is reported as the minimal inhibitory concentration (MIC).
(§4) A number of compounds of this invention were tested for in vitro antimicrobial activity against several pathogenic microorganisms using the above described procedure except that trypticase soy broth was used in place of half strength brain-heart infusion as the medium.

C. albicans = test: Serial dilution MIC test, C. albicans; type: cell-based; settings: Candida albicans; trypticase soy broth, 37° C, 36 hours; read-out: MINIMUM INHIBITORY CONCN. C. albicans
Procedure: as §1, §2, §3, §4

Ps. aeruginosa = test: Serial dilution MIC test, Ps. aeruginosa; type: cell-based; settings: Pseudomonas aeruginosa; trypticase soy broth, 37° C, 36 hours; read-out: MINIMUM INHIBITORY CONCN. Ps. aeruginosa
Procedure: as §1, §2, §3, §4

E. coli = test: Serial dilution MIC test, E. coli; type: cell-based; settings: Escherichia coli, read-out: MINIMUM […]. E. coli; trypticase soy broth, 37° C, 36 hours; read-out: MINIMUM INHIBITORY CONCN. E. coli
Procedure: as §1, §2, §3, §4

A. niger = test: Serial dilution MIC test, A. niger; type: cell-based; settings: Aspergillus niger; trypticase soy broth, 37° C, 36 hours; read-out: MINIMUM INHIBITORY CONCN. A. niger
Procedure: as §1, §2, §3, §4

[1] = tested on: S. Mutans, Strain OMZ-176E; test: Serial dilution minimum inhibitory concentration (MIC) test, S. mutans; type: cell-based; settings: Streptococcus mutans, half strength brain-heart infusion broth, 37° C, 36 hours
Procedure: as §3, with “A quantitative serial dilution test may also be performed by the following procedure. A 20 mg/ml solution of the compound to be tested is prepared in a standard brain-heart infusion broth medium which has been diluted with water to one-half standard strength. Serial” for “Serial”, “(MIC). The minimum inhibitory concentration of a number of a number of compounds of this invention with respect to the microorganism S. Mutans, Strain OMZ-176E were determined by the procedure described above. Chlorhexidine diacetate, a commercially successful antimicrobial, was used as a control.” for “(MIC).”

[2] = Staining of extracted human incisors in vitro; settings: ten days; for discoloration of teeth: 0.2% and 1% solutions, 10 minutes daily, saliva at 37° C
Procedure: The staining properties of the compound of Example II were compared with those of chlorhexidine by the following procedure. Test solutions were prepared containing 0.2% and 1% of chlorhexidine and 0.2% and 1% of the compound of Example II as the trimethanesulfonate salt. Extracted human incisors, which were used without cleaning or other treatment which would remove the dental pellicle, were suspended from wires. Daily, each tooth was immersed for 10 minutes in one of the test solutions, then suspended in whole stimulated saliva and incubated at 37° C for 24 hours.

[3] = cited from earlier work; for taste perception of foodstuffs: for several hours; for clinical antiplaque effectiveness: in vivo; for local irritation: oral mucosa and tongue; for staining of teeth, tongue, gums, oral mucosa: prolonged use

MIC [1] | Compound | MIC (S. aureus) | MIC (C. albicans) | MIC (Ps. aeruginosa) | MIC (E. coli) | MIC (A. niger) | also measured
– | N=C(NCCN1CCN(CCNC(=N)NC(=O)NC23CC4CC(CC(C4)C2)C3)CC1)NC(=O)NC12CC3CC(CC(C3)C1)C2 [1,4-bis[2-((1-adamantyl)carbamylguanidino)ethyl]piperazine dimethanesulfonic acid salt] | 0.39 mg/L | 0.78 mg/L | 6.25 mg/L | 12.5 mg/L | 50 mg/L | –
1.25 mg/L | CC(C)(C)CC(C)(C)NC(=O)NC(=N)NCCCN1CCN(CCCNC(=N)NC(=O)NC(C)(C)CC(C)(C)C)CC1 [1,4-bis[3-(1,1,3,3-tetramethylbutylcarbamylguanidino)propyl]piperazine dihydrochloride] | – | – | – | – | – | –
– | CCCCCC(C)NC(=O)NC(=N)NCCCN1CCN(CCCNC(=N)NC(=O)NC(C)CCCCC)CC1 (stereo not shown) [1,4-bis[3-(1-methylhexyl)carbamylguanidino)propyl]piperazine dihydrochloride] | 1.56 mg/L | 6.25 mg/L | 25 mg/L | 12.5 mg/L | 25 mg/L | –
1.25 mg/L | N=C(NCCCN1CCN(CCCNC(=N)NC(=O)NCCc2ccc(Cl)cc2)CC1)NC(=O)NCCc1ccc(Cl)cc1 [1,4-bis[3-(2-(4-chlorophenyl)ethylcarbamylguanidino)propyl]piperazine dihydrochloride] | – | – | – | – | – | –
5 mg/L | CCCCC(CC)CNC(=O)NC(=N)NCCCN1CCN(CCCNC(=N)NC(=O)NCC(CC)CCCC)CC1 (stereo not shown) [1,4-bis[3-(2-ethylhexylcarbamylguanidino)propyl]piperazine dihydrochloride] | – | – | – | – | – | –
– | N=C(NCCCN1CCN(CCCNC(=N)NC(=O)NC23CC4CC(CC(C4)C2)C3)CC1)NC(=O)NC12CC3CC(CC(C3)C1)C2 [1,4-bis[3-((1-adamantyl)carbamylguanidino)propyl]piperazine dimethanesulfonic acid salt] | 6.25 mg/L | 12.5 mg/L | 50 mg/L | 25 mg/L | 12.5 mg/L | –
– | N=C(NCCCN1CCN(CCCNC(=N)NC(=O)NCC2CCCCCC2)CC1)NC(=O)NCC1CCCCCC1 [1,4-bis[3-(cycloheptylmethylcarbamylguanidino)propyl]piperazine dimethanesulfonic acid salt] | 0.78 mg/L | 0.78 mg/L | 12.5 mg/L | 12.5 mg/L | 50 mg/L | –
– | N=C(NCCCN1CCN(CCCNC(=N)NC(=O)NC2CCCCC2)CC1)NC(=O)NC1CCCCC1 [1,4-bis[3-(cyclohexylcarbamylguanidino)propyl]piperazine dimethanesulfonic acid salt] | 50 mg/L | 50 mg/L | 100 mg/L | 100 mg/L | 100 mg/L | –
– | N=C(NCCCN1CCN(CCCNC(=N)NC(=O)NCC2CCCCC2)CC1)NC(=O)NCC1CCCCC1 [1,4-bis[3-(cyclohexylmethylcarbamylguanidino)propyl]piperazine dimethanesulfonic acid salt] | 0.78 mg/L | 6.25 mg/L | 100 mg/L | 6.25 mg/L | 12.5 mg/L | –
2.5 mg/L | CCCCCCCCNC(=O)NC(=N)NCCCN1CCN(CCCNC(=N)NC(=O)NCCCCCCCC)CC1 [1,4-bis[3-(n-octylcarbamylguanidino)propyl]piperazine dihydrochloride] | – | – | – | – | – | –
0.625 mg/L (≈ 1.17 µM) | CN(CCCNC(=N)NC(=O)Nc1ccc(Cl)cc1)CCCNC(=N)NC(=O)Nc1ccc(Cl)cc1 [1,7-bis(4-chlorophenylcarbamylguanidine)-4-methyl-4-azaheptane] | – | – | – | – | – | –
1.25 mg/L (≈ 2.21 µM) | CN(CCNC(=N)NC(=O)Nc1ccc(Cl)cc1)CCN(C)CCNC(=N)NC(=O)Nc1ccc(Cl)cc1 [1,8-bis(4-chlorophenylcarbamylguanidino)-3,6-dimethyl-3,6-diazaoctane] | – | – | – | – | – | –
0.156 to 0.312 mg/L (≈ 0.264 to 0.527 µM) | N=C(NCCCN1CCN(CCCNC(=N)NC(=O)Nc2ccc(Cl)cc2)CC1)NC(=O)Nc1ccc(Cl)cc1 [Example II] | – | – | – | – | – | discoloration of teeth [2]: no signs of discoloration
– | CCCCC(CC)CNC(=N)NC(=N)NCCCCCCNC(=N)NC(=N)NCC(CC)CCCC (stereo not shown) [alexidine, 1,6-bis-(2-ethylhexylbiguanidino)hexane] | – | – | – | – | – | taste perception of foodstuffs [3]: alter taste perception of foodstuffs for several hours; clinical antiplaque effectiveness [3]: clinically effective antiplaque agents; local irritation [3]: produce local irritation of the oral mucosa and tongue; staining of teeth, tongue, gums, oral mucosa [3]: produce stains of various colors on the teeth, tongue, gums, oral mucosa
0.156 to 0.312 mg/L | N=C(NCCCCCCNC(=N)NC(=N)Nc1ccc(Cl)cc1)NC(=N)Nc1ccc(Cl)cc1 [chlorhexidine diacetate, reference compound] | – | – | – | – | – | –
– | [H]/N=C(\N/C(=N/[H])NCCCCCCNC(=N)NC(=N)Nc1ccc(Cl)cc1)Nc1ccc(Cl)cc1 [chlorhexidine, 1,6-bis-(p-chlorophenylbiguanidino)hexane] | 0.39 mg/L (≈ 0.772 µM) | 3.12 mg/L (≈ 6.17 µM) | 50 mg/L (≈ 98.9 µM) | 1.56 mg/L (≈ 3.09 µM) | 12.5 mg/L (≈ 24.7 µM) | discoloration of teeth [2]: greyish-brown discoloration; dependence of amount of discoloration on concentration ([2]; 0.2% versus 1%): independent of the concentration; taste perception of foodstuffs [3]: alter taste perception of foodstuffs for several hours; clinical antiplaque effectiveness [3]: clinically effective antiplaque agents; local irritation [3]: produce local irritation of the oral mucosa and tongue; staining of teeth, tongue, gums, oral mucosa [3]: produce stains of various colors on the teeth, tongue, gums, oral mucosa; also recorded: staining of the teeth, tongue, and gums

Compound | MIC [1] | MIC (S. aureus) | MIC (C. albicans) | MIC (Ps. aeruginosa) | MIC (E. coli) | MIC (A. niger) | also measured
Cl.Cl.N=C(NCCCN1CCN(CCCNC(=N)NC(=O)NCC2CCCCC2)CC1)NC(=O)NCC1CCCCC1 [1,4-bis[(3-cyclohexylmethylcarbamylguanidino)propyl]piperazine dihydrochloride] | 1.25 mg/L | – | – | – | – | – | –
